Molecules are shown by their SMILES. Bounds are passed on as bounds.

The first data set has as its system BV-2. Kind of data set: Antiinflammatory activity in mouse BV2 cells assessed as inhibition of LPS-induced NO production after 24 hrs by Griess assay. The data set is classed as functional, cell-based. The following applies: BV-2, 24 h. For orientation: Griess reagent forms a coloured azo dye with nitrite.
As to `O=c1c2cc(O)ccc2oc2c(O[C@@H]3O[C@H](CO)[C@@H](O)[C@H](O)[C@H]3O)ccc(O)c12`, the half-inhibitory concentration (IC50) – broadly, the concentration that gives 50% inhibition – was found to be 38.4 µM.
As to `O=c1c2cc(O)c(O)cc2oc2cc(O)c([C@@H]3O[C@H](CO)[C@@H](O)[C@H](O)[C@H]3O)c(O)c12` [MANGIFERIN], the IC50 was 38.5 µM.
Consider `COc1ccc(O)c2c(=O)c3cc(O)ccc3oc12`, for which the IC50 is 7.4 µM.
The same measure, in the same setting: the figure for `COc1cc2c(=O)c3c(O)cc(O)cc3oc2cc1O` [ALLOATHYRIOL] is above 100 µM.
Take `COc1ccc2c(c1)c(CC(=O)O)c(C)n2C(=O)c1ccc(Cl)cc1` [INDOMETHACIN]: the IC50 came to 7.1 µM.
For `O=c1c2cc(O)ccc2oc2cc3c(c(O)c12)OCO3`, the IC50 came to 20.6 µM.

In a further data set the test system is BV-2. Briefly: Cytotoxicity against mouse BV2 cells assessed as cell viability at 50 uM by MTT assay. The following applies: bv-2, 50 µM. The format is cell-based. Background: Tetrazolium dyes change colour on reduction, which living cells bring about.
For `O=c1c2ccc(O)cc2oc2cccc(O)c12`, the Activity entry is “Toxic”.
Same read-out and setting: the value for `COc1c(O)cc2oc3ccc(O)cc3c(=O)c2c1O` was “Toxic”; that for `COc1cc2oc3cc(O)c(O)cc3c(=O)c2c(O)c1OC` was “Toxic”.
